Test results from PMC9804084, “Multiple drug transporters contribute to the brain transfer of levofloxacin” (CNS Neuroscience & Therapeutics, 2022).
Like-named read-outs stand apart in the source and are kept apart here.

Key:
P-glycoprotein (P-gp) = assay: In vivo microdialysis pharmacokinetics of LVFX with P-gp inhibitor Tariquidar; set-up: species or system rat; conditions: for MRT / Tmax / AUC(0-inf) / Cmax / half-life / AUC(0-t) / Kp: rat, intravenous, with Tariquidar 8 mg/kg i.p., TAR group, Tariquidar 8 mg/kg i.p. + LVFX 50 mg/kg, N=5; for MRT / AUC(0-inf) / Cmax / half-life / AUC(0-t): mean ± SD; for AUC(0-t): read-out: AUC0–180 (converted)
Method: (§1) On the day of surgery, rats were anesthetized using inhaled isoflurane via a facemask. The rats were placed in a stereotaxic frame (Gene&I), and the body temperature was maintained with a homoeothermic blanket set at 37°C. A midline incision was made to expose the skull. According to the Paxinos and Watson atlas, two microdialysis intracerebral guide cannulae (Eicom Co.) were implanted into the hippocampus CA1 region (Hp‐CA1 coordinates: AP −4.16 mm; ML −2.2 mm; DV −2.9 mm) and lateral ventricle (LV coordinates: AP −1.4 mm; ML +2.2 mm; DV −3.4 mm). Fixed to the skull using a screw and dental cement. After 3 days of recovery, the rats were anesthetized with isoflurane again. An intravascular probe (TP‐100‐20; 20 mm, Eicom Co.) was implanted into the jugular vein toward the right atrium. After the blood microdialysis probe was positioned within the jugular vein, the pipeline was connected to perfuse with ACD solution (citric acid 3.5 mM; sodium citrate 7.5 mM; dextrose 13.6 mM) at a flow rate of […], and the Hamilton microinjection pump was used for continuous perfusion. After stopping isoflurane inhalation, the rats were allowed to wake up naturally on the homoeothermic blanket. The awake rats were placed in a device that allowed them to move freely. Animals were allowed to recover for an additional 24 h.
(§2) All microdialysate concentrations (C m) from the hippocampal ECF and lateral ventricle CSF were converted to the unbound drug concentration (C u) at the target site using the following formula: C u = C m/R dial.
(§3) A total of 32 rats were randomly divided into the following groups: • Control group, N = 12: vehicle solution + LVFX (50 mg/kg). • TAR group, N = 5: Tariquidar (8 mg/kg) + LVFX (50 mg/kg). • Ko143 group, N = 5: Ko143 (15 mg/kg) + LVFX (50 mg/kg). • MK571 group, N = 5: MK571 (20 mg/kg) + LVFX (50 mg/kg). • PRO group, N = 5: Probenecid (50 mg/kg) + LVFX (50 mg/kg).
(§4) Levofloxacin was freshly dissolved in isotonic saline and administered via tail vein injection. Thirty minutes before LVFX administration, the intervention drugs of each group were injected intraperitoneally. To reduce the possible effect of solvents on BBB or BCSFB permeability of LVFX, we prioritized water as the solvent. However, Tariquidar and Ko143 are insoluble in water, and a cosolvent must be used to prepare agents that animals can tolerate. According to the different physicochemical properties of these four inhibitors, the preparation of each transporter inhibitor solution in this experiment was as follows. • P‐glycoprotein (P‐gp) inhibitor Tariquidar[22]: Tariquidar was freshly dissolved in DMSO to 8 mg/ml and then diluted to 4 mg/ml with a solution containing 10% Tween‐80, 25% PEG300, and 65% sterile water. • Breast cancer resistance protein (BCRP) inhibitor Ko143[23]: Ko143 was freshly dissolved in DMSO to 15 mg/ml and then diluted to 7.5 mg/ml with a solution containing 10% Tween‐80, 25% PEG300, and 65% sterile water. • Multidrug resistance‐associated proteins (MRPs) inhibitor MK571[24]: MK571 sodium salt hydrate was dissolved in 1.25% (w/v) aq sodium hydrogen carbonate (NaHCO3) solution to obtain a concentration of 10 mg/ml. • Organic anion transporters (OATs) inhibitor probenecid[25]: Probenecid was dissolved in NaOH (pH = 9.0–9.2) alkalized physiological saline to obtain a concentration of 25 mg/ml.
(§5) The pipelines where the blood and brain probes were installed were perfused at the speed of 2 μl/min with ACD solution and ACSF, respectively. Two brain probes were inserted into guide cannulas of the target site and allowed to equilibrate for 1 h. Subsequently, the rats were treated according to their corresponding groups in the device where they could move freely. Microdialyses samples were collected every 15 min using a fraction collector (EFC‐96, Eicom Co.) for 3 h and stored at 4°C until analysis. Finally, rats were anesthetized and decapitated, and their brain was harvested.

[1] = test system: Multidrug resistance-associated proteins (MRPs); assay: In vivo microdialysis pharmacokinetics of LVFX with MRPs inhibitor MK571; set-up: species or system rat; conditions: for increase of AUC0–180 / increase of C max: treatment with MK571 vs control group; for Kp / MRT / half-life / Tmax / AUC(0-inf) / Cmax / AUC(0-t): rat, intravenous; for Kp: with MK571 20 mg/kg intraperitoneally; for MRT / half-life / Tmax / AUC(0-inf) / Cmax / AUC(0-t): with MK571 20 mg/kg i.p.; for MRT / half-life / AUC(0-inf) / Cmax / AUC(0-t): mean ± SD; for AUC(0-t): read-out: AUC0–180 (converted)
Method: as §1, §2, §3, §4, §5

[2] = CSF (lateral ventricle microdialysate, unbound), CSF
[3] = brain ECF (hippocampal microdialysate, unbound), 30 min before LVFX, brain ECF
[4] = MK571 intervention vs control group
[5] = CSF (lateral ventricle microdialysate, unbound), 30 min before LVFX, CSF, MK571 group, MK571 20 mg/kg i.p. + LVFX 50 mg/kg, N=5
[6] = CSF (lateral ventricle microdialysate, unbound), CSF, MK571 group, MK571 20 mg/kg i.p. + LVFX 50 mg/kg, N=5
[7] = brain ECF (hippocampal microdialysate, unbound), 30 min before LVFX, brain ECF, MK571 group, MK571 20 mg/kg i.p. + LVFX 50 mg/kg, N=5
[8] = 30 min before LVFX, blood, MK571 group, MK571 20 mg/kg i.p. + LVFX 50 mg/kg, N=5

For `C[C@H]1COc2c(N3CCN(C)CC3)c(F)cc3c(=O)c(C(=O)O)cn1c23` [LVFX, Levofloxacin], the “change in LVFX in the rat brain after Tariquidar” value (P-glycoprotein (P-gp); Tariquidar 8 mg/kg i.p. + LVFX 50 mg/kg vs control group) was “no significant change”, the MRT (P-glycoprotein (P-gp); CSF (lateral ventricle microdialysate, unbound), 30 min before LVFX, CSF) was 80 min and the Tmax (P-glycoprotein (P-gp); [2]) was 15 min. For the same molecule, the AUC(0-inf) (P-glycoprotein (P-gp); [2]) was 4540 ng·h/mL, the Cmax (P-glycoprotein (P-gp); [2]) was 3590 ± 280 ng/mL and the half-life (P-glycoprotein (P-gp); [2]) was 50.5 ± 18.6 min. It also gave an AUC(0-t) (P-glycoprotein (P-gp); [2]) of 3900 ng·h/mL, a Kp (P-glycoprotein (P-gp); CSF / blood (unbound, microdialysate), 30 min before LVFX, AUCu,CSF/AUCu,blood, read-out: K p,uu,CSF) of 0.37 ± 0.013 and a Tmax (P-glycoprotein (P-gp); [3]) of 15 min. It also gave an AUC(0-inf) (P-glycoprotein (P-gp); [3]) of 4580 ng·h/mL, a Cmax (P-glycoprotein (P-gp); [3]) of 2810 ± 450 ng/mL and an MRT (P-glycoprotein (P-gp); [3]) of 86.1 min. It also gave a half-life (P-glycoprotein (P-gp); [3]) of 52.9 ± 9.83 min, an AUC(0-t) (P-glycoprotein (P-gp); [3]) of 4100 ng·h/mL and a Kp (P-glycoprotein (P-gp); brain ECF / blood, 30 min before LVFX, AUCu,ECF/AUCu,blood, read-out: K p,uu,ECF) of 0.368 ± 0.035. For the same molecule, the Tmax (P-glycoprotein (P-gp); 30 min before LVFX, blood) was 15 min, the AUC(0-inf) (P-glycoprotein (P-gp); 30 min before LVFX, blood) was 11800 ng·h/mL and the Cmax (P-glycoprotein (P-gp); 30 min before LVFX, blood) was 10400 ± 760 ng/mL. It also gave an MRT (P-glycoprotein (P-gp); 30 min before LVFX, blood) of 69.2 min, a half-life (P-glycoprotein (P-gp); 30 min before LVFX, blood) of 40 ± 6.51 min and an AUC(0-t) (P-glycoprotein (P-gp); 30 min before LVFX, blood) of 11100 ng·h/mL. The “K p,uu,CSF” value ([1]; AUCu,CSF/AUCu,blood, MK571 group, MK571 20 mg/kg i.p. + LVFX 50 mg/kg, N=5) was 47.9 ± 2.4 %, the “K p,uu,ECF” value ([1]; AUCu,ECF/AUCu,blood, MK571 group, MK571 20 mg/kg i.p. + LVFX 50 mg/kg, N=5) was 46.0 ± 1.5 % and the “increase of AUC0–180” value ([1]; CSF) was 1.26 fold. The “increase of C max” value ([1]; CSF) was 1.50 fold, the “increase in K p,uu,CSF” value [1, 4] was 1.16 fold and the “increase in K p,uu,ECF” value [1, 4] was 1.35 fold. For the same molecule, the “increase of AUC0–180” value ([1]; brain ECF) was 1.47 fold, the “increase of C max” value ([1]; brain ECF) was 1.55 fold and the Kp ([1]; CSF (lateral ventricle microdialysate) relative to blood, 30 min before LVFX, AUCu,CSF/AUCu,blood, MK571 group, MK571 20 mg/kg i.p. + LVFX 50 mg/kg, N=5, read-out: K p,uu,CSF) was 0.479 ± 0.024. It also gave an MRT [1, 5] of 75.8 min, a half-life [1, 5] of 54.9 ± 7.43 min and a Tmax [1, 6] of 15 min. It also gave an AUC(0-inf) [1, 6] of 5860 ng·h/mL, a Cmax [1, 6] of 5460 ± 190 ng/mL and an AUC(0-t) [1, 6] of 5290 ng·h/mL. For the same molecule, the Kp ([1]; brain ECF (hippocampal microdialysate) relative to blood, 30 min before LVFX, AUCu,ECF/AUCu,blood, MK571 group, MK571 20 mg/kg i.p. + LVFX 50 mg/kg, N=5, read-out: K p,uu,ECF) was 0.46 ± 0.015, the Tmax [1, 7] was 15 min and the AUC(0-inf) [1, 7] was 5630 ng·h/mL. It also gave a Cmax [1, 7] of 4210 ± 350 ng/mL, an MRT [1, 7] of 80.9 min and a half-life [1, 7] of 49 ± 15.1 min. It also gave an AUC(0-t) [1, 7] of 5080 ng·h/mL, a Tmax [1, 8] of 15 min and an AUC(0-inf) [1, 8] of 11700 ng·h/mL. For the same molecule, the Cmax [1, 8] was 10100 ± 310 ng/mL, the MRT [1, 8] was 69.7 min and the half-life [1, 8] was 39.5 ± 4.79 min. For the same molecule, the AUC(0-t) [1, 8] was 11000 ng·h/mL.
